The source of these data is patent publication US20220267352A1, “RAPAMYCIN ANALOGS AND USES THEREOF” (Anakuria Therapeutics, Inc., priority 2021, published 2022).

Common to all, as to assay type: cell-based
Experiment [1] relates to p-p70 S6 Kinase (Thr389) in MCF-7 cells. The experiment can be described thus: AlphaLISA Ultra pS6K1 assay. The note with it: Homo sapiens, 1.5 h; MCF7 cells, 90 min. The procedure:
Example 55: AlphaLISA Ultra pS6K1 Assay
(§1) Assay Protocol: • 1. Seed MCF-7 cells in Corning 3701 plate and incubate for 20˜24 hour. 12,000˜16,000 cells will be seeded in 36 μL medium per well. • 2. Change the culture medium with fresh medium and incubate for another 2 hours. • 3. Add 12 μL (4×) compounds into the cell plate by HAMILTON. Final DMSO concentration is 0.5%. Incubate for 90 minutes. • 4. Aspirate 38 μL by HAMILTON, 10 μL rest per well. • 5. Add 10 μL 2× lysis buffer using HAMILTON; total volume in wells is 20 μL. Allow cells to shake for 30 min. Cover plate by plastic foil and store plate at −80° C. up to analysis. • 6. Thaw cell lysate at RT and transfer 10 μL lysate to assay plate (Optiplate-384). • 7. Add 5 μL acceptor beads into assay plate and incubation for 2 hours • 8. Add 5 μL donor beads and incubation for 2 hours • 9. Count the plate by EnSpire Multimode Plate Reader
Background: In Alpha technology, singlet oxygen from a donor bead excites a nearby acceptor bead.

The subject of experiment [2] is p-Akt 1/2/3 (Ser473) in MCF-7 cells. The experiment can be described thus: AlphaLISA Ultra pAKT assay. The settings on record: Homo sapiens, 1.5 h; MCF7 cells, 90 min. As to the method: Example 56: AlphaLISA Ultra pAKT Assay
as §1, with “1.” for “1. Seed”, “16,000˜20,000” for “12,000˜16,000”, “90 minutes.” for “2 hours.”, “Incubate for 90 minutes. • 4.” left out

The next experiment concerns mTORC1 over mTORC2. The experiment can be described thus: mTORC1 over mTORC2 selectivity by comparing pS6K1 and pAKT IC50. The settings on record: by comparing pS6K1 and pAKT IC50, 90 min. As to the method:
as §1, with “Reader […]” for “Reader”
Compounds that are not selective by comparing pS6K1 and pAKT IC50 by kinase assays are indicated by “NO” in the “mTORC1 selective @ 90 min” column of Table 4. […] Compounds that are not selective at the 24 hrs mark are indicated by “NO” in the “mTORC1 selective @ 24 hrs” column of Table 4. “N/A” stands for “not assayed” and “N/C” stands for “not calculated”.

As for `COCCOCCO[C@@H]1C[C@@H]2CC[C@@H](C)[C@@](O)(O2)C(=O)C(=O)N2CCCC[C@H]2C(=O)O[C@H]([C@H](C)C[C@@H]2CC[C@@H](OC(F)F)[C@H](OC)C2)CC(=O)[C@H](C)/C=C(\C)[C@@H](O)[C@@H](OC)C(=O)[C@H](C)C[C@H](C)/C=C/C=C/C=C/1C` [I-5, (22E,24E,26E,27E,33R,34S,35R,36R,38S,40S,42R,43S,44R,45R,55R)-43-[(1R)-2-[(1S,3R,4R)-4-(difluoromethoxy)-3-methoxy-cyclohexyl]-1-methyl-ethyl]-44,55-dihydroxy-45-methoxy-42-[2-(2-methoxyethoxy)ethoxy]-33,34,35,36,46,47-hexamethyl-64,65-dioxa-56-azatricyclohexatriaconta-22,24,26(46),27(47)-tetraene-48,49,50,51,52-pentone], the IC50 (commonly the concentration that inhibits the measured activity by half) was 10 to 100 nM in experiment [1] and ≥ 1000 nM in experiment [2]. For the same compound, the “mTORC1 selective @ 90 min” value in the experiment on mTORC1 over mTORC2 is listed as “Yes”.

Turning to `CO[C@@H]1C[C@H](C[C@@H](C)[C@@H]2CC(=O)[C@H](C)/C=C(\C)[C@@H](O)[C@@H](OC)C(=O)[C@H](C)C[C@H](C)/C=C/C=C/C=C(\C)C(OCC3COCCO3)C[C@@H]3CC[C@@H](C)[C@@](O)(O3)C(=O)C(=O)N3CCCC[C@H]3C(=O)O2)CC[C@H]1OC(F)F` (stereo partly drawn) [I-6, (24E,26E,28E,29E,32R,33S,34R,35R,37S,39S,42S,44R,45R,55R)-42-[(1R)-2-[(1S,3R,4R)-4-(difluoromethoxy)-3-methoxy-cyclohexyl]-1-methyl-ethyl]-41-(1,4-dioxan-2-ylmethoxy)-44,55-dihydroxy-45-methoxy-32,33,34,35,46,47-hexamethyl-66,67-dioxa-56-azatricyclohexatriaconta-24,26,28(46),29(47)-tetraene-48,49,50,51,52-pentone], the IC50 was 10 to 100 nM in experiment [1] and ≥ 1000 nM in experiment [2]. In addition, the “mTORC1 selective @ 90 min” value with mTORC1 over mTORC2 is given as “Yes”.

`COCCOCCOC1C[C@@H]2CC[C@@H](C)[C@@](O)(O2)C(=O)C(=O)N2CCCC[C@H]2C(=O)O[C@H]([C@H](C)C[C@@H]2CCC(OC3COC3)[C@H](OC)C2)CC(=O)[C@H](C)/C=C(\C)[C@@H](O)[C@@H](OC)C(=O)[C@H](C)C[C@H](C)/C=C/C=C/C=C/1C` (stereo partly drawn) [I-7, (24E,26E,28E,29E,35R,36S,37R,38R,40S,42S,45S,47R,48R,57R)-47,57-dihydroxy-48-methoxy-44-[2-(2-methoxyethoxy)ethoxy]-45-[(1R)-2-[(1S,3R)-3-methoxy-4-(oxetan-3-yloxy)cyclohexyl]-1-methyl-ethyl]-35,36,37,38,49,50-hexamethyl-67,68-dioxa-58-azatricyclohexatriaconta-24,26,28(49),29(50)-tetraene-51,52,53,54,55-pentone]: the IC50 in experiment [1] was 1 to 10 nM; in experiment [2], ≥ 1000 nM. The “mTORC1 selective @ 90 min” value in the experiment on mTORC1 over mTORC2 is “Yes”.

Regarding `CO[C@@H]1/C(C)=C/[C@@H](C)C(=O)C[C@@H]([C@H](C)C[C@@H]2CC[C@@H](OC(F)F)[C@H](OC)C2)OC(=O)[C@@H]2CCCCN2C(=O)C(=O)[C@]2(O)O[C@@H](CC[C@H]2C)CC(OCC2COCCO2)/C(C)=C/C=C/C=C/[C@@H](C)C[C@@H](C)C(=O)[C@@H]1OC` (stereo partly drawn) [I-8, (25E,27E,29E,30E,33R,34S,35R,36R,38S,40S,43S,45R,46R,56R)-43-[(1R)-2-[(1S,3R,4R)-4-(difluoromethoxy)-3-methoxy-cyclohexyl]-1-methyl-ethyl]-42-(1,4-dioxan-2-ylmethoxy)-56-hydroxy-45,46-dimethoxy-33,34,35,36,47,48-hexamethyl-66,67-dioxa-57-azatricyclohexatriaconta-25,27,29(47),30(48)-tetraene-49,50,51,52,53-pentone], the IC50 in experiment [1] is 10 to 100 nM; in experiment [2], ≥ 1000 nM. The “mTORC1 selective @ 90 min” value with mTORC1 over mTORC2 was “Yes”.

Turning to `CO[C@@H]1C[C@H](C[C@@H](C)[C@@H]2CC(=O)[C@H](C)/C=C(\C)[C@@H](O)[C@@H](OC)C(=O)[C@H](C)C[C@H](C)/C=C/C=C/C=C(\C)[C@H](OCC3COCCO3)C[C@@H]3CC[C@@H](C)[C@@](O)(O3)C(=O)C(=O)N3CCCC[C@H]3C(=O)O2)CC[C@H]1OC(F)F` (stereo partly drawn) [I-10, (24E,26E,28E,29E,32R,33S,34R,35R,37S,39S,41R,42S,44R,45R,55R)-42-[(1R)-2-[(1S,3R,4R)-4-(difluoromethoxy)-3-methoxy-cyclohexyl]-1-methyl-ethyl]-41-(1,4-dioxan-2-ylmethoxy)-44,55-dihydroxy-45-methoxy-32,33,34,35,46,47-hexamethyl-66,67-dioxa-56-azatricyclohexatriaconta-24,26,28(46),29(47)-tetraene-48,49,50,51,52-pentone], the results for the 50% inhibitory concentration (IC50) in experiment [1] and in experiment [2] were 10 to 100 nM and ≥ 1000 nM, respectively. The “mTORC1 selective @ 90 min” value in the experiment with mTORC1 over mTORC2 was “Yes”.

As for `CO[C@@H]1/C(C)=C/[C@@H](C)C(=O)C[C@@H]([C@H](C)C[C@@H]2CC[C@@H](O)[C@H](OC)C2)OC(=O)[C@@H]2CCCCN2C(=O)C(=O)[C@]2(O)O[C@@H](CC[C@H]2C)CC(OCCOC2COC2)/C(C)=C/C=C/C=C/[C@@H](C)C[C@@H](C)C(=O)[C@@H]1OC` (stereo partly drawn) [I-11, (3S,6R,7E,9R,10R,12R,14S,15E,17E,19E,23S,26R,27R,34aS)-27-hydroxy-3-((R)-1-((1S,3R,4R)-4-hydroxy-3-methoxycyclohexyl)propan-2-yl)-9,10-dimethoxy-6,8,12,14,20,26-hexamethyl-21-(2-(oxetan-3-yloxy)ethoxy)-9,10,12,13,14,21,22,23,24,25,26,27,32,33,34,34a-hexadecahydro-3H-23,27-epoxypyrido[2,1-c][1]oxa[4]azacyclohentriacontine-1,5,11,28,29(4H,6H,31H)-pentaone], the results for the IC50 in experiment [1] and in experiment [2] were 10 to 100 nM and ≥ 1000 nM, respectively. Moreover, the “mTORC1 selective @ 90 min” value with mTORC1 over mTORC2 was “Yes”.

For the compound `CO[C@@H]1/C(C)=C/[C@@H](C)C(=O)C[C@@H]([C@H](C)C[C@@H]2CC[C@@H](OP(C)(C)=O)[C@H](OC)C2)OC(=O)[C@@H]2CCCCN2C(=O)C(=O)[C@]2(O)O[C@@H](CC[C@H]2C)CC(OCC2COCCO2)/C(C)=C/C=C/C=C/[C@@H](C)C[C@@H](C)C(=O)[C@@H]1OC` (stereo partly drawn) [I-24, (1R,2R,4S)-4-((2R)-2-((3S,6R,7E,9R,10R,12R,14S,15E,17E,19E,23S,26R,27R,34aS)-21-((1,4-dioxan-2-yl)methoxy)-27-hydroxy-9,10-dimethoxy-6,8,12,14,20,26-hexamethyl-1,5,11,28,29-pentaoxo-1,4,5,6,9,10,11,12,13,14,21,22,23,24,25,26,27,28,29,31,32,33,34,34a-tetracosahydro-3H-23,27-epoxypyrido[2,1-c][1]oxa[4]azacyclohentriacontin-3-yl)propyl)-2-methoxycyclohexyl dimethylphosphinate], the IC50 in experiment [2] was ≥ 1000 nM.

Take `CO[C@@H]1/C(C)=C/[C@@H](C)C(=O)C[C@@H]([C@H](C)C[C@@H]2CC[C@@H](OCCO)[C@H](OC)C2)OC(=O)[C@@H]2CCCCN2C(=O)C(=O)[C@]2(O)O[C@@H](CC[C@H]2C)CC(OCCOC2COC2)/C(C)=C/C=C/C=C/[C@@H](C)C[C@@H](C)C(=O)[C@@H]1OC` (stereo partly drawn) [I-87, (3S,6R,7E,9R,10R,12R,14S,15E,17E,19E,23S,26R,27R,34aS)-27-hydroxy-3-((R)-1-((1S,3R,4R)-4-(2-hydroxyethoxy)-3-methoxycyclohexyl)propan-2-yl)-9,10-dimethoxy-6,8,12,14,20,26-hexamethyl-21-(2-(oxetan-3-yloxy)ethoxy)-9,10,12,13,14,21,22,23,24,25,26,27,32,33,34,34a-hexadecahydro-3H-23,27-epoxypyrido[2,1-c][1]oxa[4]azacyclohentriacontine-1,5,11,28,29(4H,6H,31H)-pentaone]: the IC50 in experiment [2] is ≥ 1000 nM.
